We go through three compounds from paper PMC9091350, “Sodium Tanshinone IIA Sulfonate as a Potent IDO1/TDO2 Dual Inhibitor Enhances Anti-PD1 Therapy for Colorectal Cancer in Mice” (Frontiers in Pharmacology, 2022).

SMILES strings stand for the structures. pIC50: −log10 of the molar value.

What all share (type): biochemical
Assay [1] addresses T1, indoleamine 2,3-dioxygenase 1 (IDO1) (Homo sapiens, UniProt P14902).
T1 construct: full-length, N-terminal His-AK tag (His-AK-IDO1)
The experiment in a line: purified recombinant enzyme inhibitor screen (compounds at […]), kynurenine absorbance at […] nm.

Assay [2] concerns the target T2, tryptophan 2,3-dioxygenase 2 (TDO2) (Homo sapiens, UniProt P48775). The experiment in a line: purified recombinant enzyme assay, kynurenine absorbance at […] nm.
For assay [3], the target named is T1, indoleamine 2,3-dioxygenase 1 (IDO1). The experiment in a line: purified recombinant enzyme assay, kynurenine absorbance at […] nm; also kynurenine reduction in IDO1-293T cells.
Assay [4] concerns the target T2, tryptophan 2,3-dioxygenase 2 (TDO2). The experiment in a line: purified recombinant enzyme assay, kynurenine absorbance at […] nm; also kynurenine reduction in TDO2-293T cells.

T1 sequence (P14902 whole entry): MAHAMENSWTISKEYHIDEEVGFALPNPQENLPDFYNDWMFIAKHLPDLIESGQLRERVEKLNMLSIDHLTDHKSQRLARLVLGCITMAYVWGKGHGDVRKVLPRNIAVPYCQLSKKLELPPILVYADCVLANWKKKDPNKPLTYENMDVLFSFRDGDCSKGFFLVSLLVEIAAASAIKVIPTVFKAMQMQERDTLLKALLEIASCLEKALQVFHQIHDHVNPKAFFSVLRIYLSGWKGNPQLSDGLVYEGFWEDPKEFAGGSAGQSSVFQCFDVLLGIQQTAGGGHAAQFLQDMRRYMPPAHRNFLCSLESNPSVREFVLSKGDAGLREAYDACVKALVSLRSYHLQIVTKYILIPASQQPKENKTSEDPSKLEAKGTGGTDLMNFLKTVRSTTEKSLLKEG
T2 sequence (P48775 whole entry): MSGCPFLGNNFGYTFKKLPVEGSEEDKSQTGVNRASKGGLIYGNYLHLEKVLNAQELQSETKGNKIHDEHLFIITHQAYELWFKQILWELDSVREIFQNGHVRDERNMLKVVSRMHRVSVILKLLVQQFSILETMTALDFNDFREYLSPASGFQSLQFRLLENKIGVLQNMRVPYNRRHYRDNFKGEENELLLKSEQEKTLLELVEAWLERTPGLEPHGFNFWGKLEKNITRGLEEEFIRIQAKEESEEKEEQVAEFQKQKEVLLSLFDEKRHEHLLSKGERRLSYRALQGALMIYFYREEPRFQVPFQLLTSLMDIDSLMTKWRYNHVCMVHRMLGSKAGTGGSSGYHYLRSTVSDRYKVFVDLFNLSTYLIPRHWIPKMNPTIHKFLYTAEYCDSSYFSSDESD

In the case of `COc1c(O)cc2oc3cc(O)c(CC=C(C)C)c(O)c3c(=O)c2c1CC=C(C)C` [mangostin], the “purified recombinant enzyme inhibitor screen (compounds at 10 μM), kynurenine ab” value in assay [1] is “several compounds, including mangostin and androstenedione, could inhibit the activity of IDO1 (Supplementary Figures S1A,B)”.

With `Cc1coc2c1C(=O)C(=O)c1c-2ccc2c1CCCC2(C)C` [TSN, tanshinone IIA], the “purified recombinant enzyme assay, kynurenine absorbance at 490 nm” value in assay [2] is recorded as “TSN only reduced the activity of TDO2 but not IDO1 (Figure 1C)”.

What is called pIC50 is the negative decadic logarithm of the IC50, by convention in mol/L. For the compound `Cc1c(S(=O)(=O)O)oc2c1C(=O)C(=O)c1c-2ccc2c1CCCC2(C)C` [STS, Sodium tanshinone IIA sulfonate], the pIC50 in assay [3] and in assay [4] was more than 5.00 each time.
